Series [1] has as its system respiratory function after cigarette smoke exposure. The experiment in a line: Cigarette smoke exposure, deterioration of guinea pig's breath function (COPD model). The following applies: 30 mg/kg a day, oral, Student t-test. In kind it is in vivo, Hartley guinea pig. The procedure: The main current smoke of a cigarette with a filter tip commercially available (Highlight, nicotine 1.4 mg content, and tar 17 mg content, Japan Tabaco Inc.) was exposed to the nose and the mouth of a Hartley guinea pig (obtained from Japan SLC Co., Ltd.) at the rate of 30 pieces of the cigarettes a day for five days a week during 30 days with a cigarette smoke exposure device for an animal (manufactured by […] Co., Ltd.). (Wright J L, Churg A. Cigarette smoke causes physiologic and morphologic changes of emphysema in the guinea pig Am. Rev. Respir. Dis. 1990 142:1422-8). […] After 16 to 24 hours had passed from the final cigarette smoke exposure, the trachea incision of the guinea pig was conducted under urethane ([…], i.p.) anesthesia, and a cannula was intubated and installed in a respiratory function measuring device system, a maneuver (manufactured by Baxco Co., Ltd.) for small animals. The respiratory function of the guinea pig was measured according to the protocol of the maneuver. In the medium administered control group and the medicine administered group, the amount of a functional residual air, the increase in the total lung capacity, and the decrease in the dynamic lung compliance by the cigarette smoke exposure were compared and the test of the significant difference was conducted. The data will be shown by the average±the standard deviation. […]

Another series addresses CB2 receptor (Homo sapiens, UniProt P34972). The experiment in a line: cAMP formation inhibition experiment through a cannabinoid receptor (forskolin stimulation), CB2. The class given is cell-based. Set-up: expressed in transfected cells; host or cells: CHO cells. Background: cAMP levels reflect the balance of adenylyl cyclase and phosphodiesterase activity.
The target in the next series is CB1 receptor (Homo sapiens, UniProt P21554). The experiment in a line: cAMP formation inhibition experiment through a cannabinoid receptor (forskolin stimulation), CB1. In kind it is cell-based. Set-up: expressed in transfected cells; host or cells: CHO cells. The note with it: read-out: Agonist activity (nM) CB1. Summed up: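 CHO cells expressing human CB1 were pre-incubated with compound for 15 min, then stimulated with forskolin (final 4 μM) for 20 min. The reaction was stopped with 1 M HCl and supernatant cAMP was measured by cAMP kit.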
CB1 receptor, sequence (P21554 whole entry): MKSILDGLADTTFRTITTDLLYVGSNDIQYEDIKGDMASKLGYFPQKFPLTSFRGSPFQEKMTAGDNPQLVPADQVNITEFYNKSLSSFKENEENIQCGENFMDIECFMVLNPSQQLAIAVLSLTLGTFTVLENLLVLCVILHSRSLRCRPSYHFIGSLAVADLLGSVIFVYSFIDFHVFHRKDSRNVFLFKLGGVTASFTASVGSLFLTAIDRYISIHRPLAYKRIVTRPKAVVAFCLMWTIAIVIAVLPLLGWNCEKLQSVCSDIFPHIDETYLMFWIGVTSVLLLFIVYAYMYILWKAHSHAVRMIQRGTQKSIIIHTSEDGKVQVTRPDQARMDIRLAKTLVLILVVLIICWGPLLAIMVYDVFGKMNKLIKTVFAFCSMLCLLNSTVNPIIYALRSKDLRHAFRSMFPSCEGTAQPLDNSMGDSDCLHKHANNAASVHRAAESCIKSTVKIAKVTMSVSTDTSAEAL

In series [2] the test system is scratching action induced by Compound 48/80. In words: Anti-pruritic activity test by application (Compound 48/80 scratching). The class given is in vivo, mouse (Crj:CD-1 (ICR)). The note with it: Mus musculus, topical, read-out: Itching inhibition ratio % (Concentration %). Summed up:
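Female CD-1 (ICR) mice, 6–10 weeks, received 50 μL compound in acetone topically on clipped dorsal skin (acetone alone for controls). 15 min later, 3 μg Compound 48/80 injected intradermally at the site; hind-leg scratching counted over 30 min, 5–7 mice per group, means compared by Welch's t-test.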

Counter-ions that a name gives are not always drawn.

CB2 receptor, sequence (P34972 whole entry): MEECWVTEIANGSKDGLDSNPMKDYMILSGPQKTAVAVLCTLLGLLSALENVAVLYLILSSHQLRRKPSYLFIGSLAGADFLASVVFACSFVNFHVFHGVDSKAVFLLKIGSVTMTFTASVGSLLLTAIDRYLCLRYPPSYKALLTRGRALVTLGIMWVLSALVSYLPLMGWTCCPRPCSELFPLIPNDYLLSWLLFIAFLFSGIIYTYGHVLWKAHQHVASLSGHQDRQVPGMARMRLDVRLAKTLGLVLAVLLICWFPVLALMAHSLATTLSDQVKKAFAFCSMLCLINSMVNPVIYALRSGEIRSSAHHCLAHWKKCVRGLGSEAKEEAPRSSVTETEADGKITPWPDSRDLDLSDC
Procedure for CB2 receptor: After the reaction had been stopped by adding 1M hydrochloric acid, the amount of cAMP in the supernatant was measured with the use of Cyclic AMP kit (made by the CIS Diagnostic Corp.).

As usually defined, the melting point is the temperature of the solid-liquid transition. In the case of `CC(C)(NC(=O)c1cc2c(n(CC3CCCCC3)c1=O)CCCCCC2)C(=O)NN`, the melting point fell in the range of 177 to 180 °C. In turn, `CCCCn1c(CCC)c(CC)cc(C(=O)NC2CCCCC2C(=O)O)c1=O` (stereo not drawn) came in with a melting point of 167 to 169 °C. The compound `COC(=O)NCCCn1c2c(cc(C(=O)NC(C)(C)C(=O)OC)c1=O)CCCCCC2` (as salt: phosphate) returned a melting point of 135 to 136 °C.

In the case of `COC(=O)C(NC(=O)c1cc2c(n(CC=O)c1=O)CCCCCC2)C(C)C` (stereo not drawn) [(1), methyl 3-methyl-2-{[2-oxo-1-(2-oxo-ethyl)-1,2,5,6,7,8,9,10-octahydro-cycloocta[b]pyridine-3-carbonyl]-amino}-butyrate], in series [1], the “increase in the amount of a functional residual air by the cigarette smoke exposure, difference to medium group” value is listed as “significant difference of P<0.05” and the “increase in the total lung capacity by the cigarette smoke exposure, difference to medium group” value is reported as “significant difference of P<0.05”. As for `CC(C)(NC(=O)c1cc2c(n(CC3CCCCC3)c1=O)CCCCCC2)C(=O)NNS(C)(=O)=O` [Compound I-052, 1-cyclohexylmethyl-2-oxo-1,2,5,6,7,8,9,10-octahydro-cycloocta[b]pyridine-3-carboxylic acid (1-methylsulfonylhydrazinocarbonyl-1-methyl-ethyl)-amide], the melting point fell in the range of 177 to 178 °C. The IC50 against CB2 receptor turned out to be 8.1 nM. In addition, the IC50 at CB1 receptor is 49 nM. Moreover, the inhibition in vivo at 3 % in series [2] was determined as 80%.

The record behind these values is patent publication US8367666B2 (priority 2004, dated 2013).
